According to PubChem BioAssay (NCI):
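Assay format: 96-well plates, 48-hour exposure. GI50: concentration for 50% inhibition of growth. The concentration for full growth arrest is given as TGI.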

Experiments:
Experiment in all cases: inhibition of tumour cell growth, NCI panel, 48 h
ACHN renal = tested on: ACHN renal
BT-549 breast = tested on: BT-549 breast
CAKI-1 renal = tested on: CAKI-1 renal
COLO 205 colon = tested on: COLO 205 colon
DU-145 prostate = tested on: DU-145 prostate
HCC-2998 colon = tested on: HCC-2998 colon
NCI-H226 lung = tested on: NCI-H226 lung
NCI-H460 lung = tested on: NCI-H460 lung
OVCAR-4 ovarian = tested on: OVCAR-4 ovarian
PC-3 prostate = tested on: PC-3 prostate
RPMI-8226 leukemia = tested on: RPMI-8226 leukemia
SF-295 CNS = tested on: SF-295 CNS
SK-MEL-2 melanoma = tested on: SK-MEL-2 melanoma
UACC-257 melanoma = tested on: UACC-257 melanoma
A549 NSCLC = tested on: A549 NSCLC
SNB-19 CNS = tested on: SNB-19 CNS
T-47D breast = tested on: T-47D breast
SN12C renal = tested on: SN12C renal

Compound	TGI (ACHN renal) [µM]	TGI (BT-549 breast) [µM]	TGI (CAKI-1 renal) [µM]	TGI (COLO 205 colon) [µM]	TGI (DU-145 prostate) [µM]	TGI (HCC-2998 colon) [µM]	TGI (NCI-H226 lung) [µM]	TGI (NCI-H460 lung) [µM]	TGI (OVCAR-4 ovarian) [µM]	TGI (PC-3 prostate) [µM]	TGI (RPMI-8226 leukemia) [µM]	TGI (SF-295 CNS) [µM]	TGI (SK-MEL-2 melanoma) [µM]	TGI (UACC-257 melanoma) [µM]	GI50 (A549 NSCLC) [µM]	TGI (A549 NSCLC) [µM]	GI50 (OVCAR-4 ovarian) [µM]	TGI (SNB-19 CNS) [µM]	TGI (T-47D breast) [µM]	TGI (SN12C renal) [µM]
O=c1c(-c2ccccc2)c(SCCCN2CCCCC2)n(-c2ccccc2)c(=S)n1-c1ccccc1	34.4	35.5	38.7	36.8	34.1	16.8	30.4	31.5	58	39.4	37.7	32.1	30.3	31.9						
O=c1c2ccccc2nc2n1CCc1c-2[nH]c2ccccc12			47.9	37.9	33.5				43.8	40.9	> 100	27			14.5	37.4	18.9	29.2	55.5	
NCCCCNOCCCN	> 100	> 100	> 100	> 100	> 100	> 100	> 100	> 100	> 100	> 100	> 100	> 100	> 100	> 100		> 100		> 100	> 100	> 100
C=CCN1C(=O)NC(=O)/C(=C/c2c3ccccc3cc3ccccc23)C1=O			40.3	35.3		28.4	45.9	37	47.5			38.3	38.7			58.2		47.7		
CC(C)(CCCCC(C)(C)NC1=NCCO1)NC1=NCCO1	> 10		> 10	> 10	> 10	> 10	> 10	> 10	> 10	> 10	> 10	> 10	> 10			> 10		> 10	> 10	> 10
COC(=O)C1=C(O)C(C(=O)OC)[C@@]2(O)[C@@H](C(=O)OC)[C@H](C)C[C@@H]1[C@@H]2C(=O)OC (some centres not stated)	> 100	> 100			50.5	30.9	> 100	44.3			71.5		58.9	> 100				> 100	> 100	> 100
